Our source for the Ki values is patent US20110028447A1, “INDAZOLE DERIVATIVES” (Pfizer Inc., priority 2008, published 2011).

SMILES strings stand for the structures.

human CB1 receptor, sequence (P21554 whole entry): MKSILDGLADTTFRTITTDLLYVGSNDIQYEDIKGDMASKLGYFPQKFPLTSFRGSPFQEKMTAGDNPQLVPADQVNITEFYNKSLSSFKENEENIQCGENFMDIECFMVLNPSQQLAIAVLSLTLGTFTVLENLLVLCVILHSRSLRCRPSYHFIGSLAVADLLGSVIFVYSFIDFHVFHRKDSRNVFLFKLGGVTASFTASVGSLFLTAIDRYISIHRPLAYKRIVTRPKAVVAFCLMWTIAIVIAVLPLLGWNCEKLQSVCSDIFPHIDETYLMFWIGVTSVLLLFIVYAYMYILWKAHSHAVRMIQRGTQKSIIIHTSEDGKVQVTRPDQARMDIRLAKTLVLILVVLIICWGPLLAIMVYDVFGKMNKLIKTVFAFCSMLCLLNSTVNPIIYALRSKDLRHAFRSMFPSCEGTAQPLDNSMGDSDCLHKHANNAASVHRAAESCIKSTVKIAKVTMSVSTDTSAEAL

The first test concerns the target human CB1 receptor (Homo sapiens, UniProt P21554). In words: Human CB1 receptor binding, [3H] CP-55,940 displacement on HEK cell membranes. Further details: expressed in transfected cells; host or cells: HEK cells, doxycycline-induced; membrane preparation. To be noted: CB1 Ki. The method, then: The Human CB1 receptor binding affinity and other biological activities of the compounds of this invention are determined by the following procedures. Membrane preparation: Human Embryonic Kidney (HEK) Cells expressing the human CB1 receptor under transcriptional regulation of a tetracycline inducible promoter were grown in Dulbecco's Modified Essential Medium with sodium pyruvate (Invitrogen, Carlsbad, Calif.) containing 10% tetracycline free fetal bovine serum (Clonetech, Mountain View, Calif.) 100 μg/ml hygromycin (Calbiochem, San Diego, Calif.), 5 μg/ml blasticidin (Invitrogen). CB1 receptor expression was induced by addition of 1 μg/ml doxycycline (Calbiochem) and incubation for an additional 24 hours. Cells were released from flasks using Cell Dissociation Buffer (Invitrogen). Cells were pelleted by centrifugation at 500×G for 5 minutes. Membranes were prepared by resuspending cells in ice cold TEE Buffer (25 mM Tris pH 7.4, 5 mM EDTA, 5 mM EGTA, Complete Protease Inhibitor (Roche, Basel, Switzerland)). Cells were lysed with 12 strokes of a dounce homogenizer. Unlysed cells were pelleted by centrifugation at 500×G for 5 minutes. Membranes were pelleted by centrifugation at 25,000×G for 30 minutes. Membranes were resuspended in TEE, dounced 12 strokes, and pelleted a second time at 25,000×G for 30 minutes. Membrane pellet was resuspended in 50 mM Tris pH 7.4, 100 mM NaCl, 3 mM MgCl2, 0.2 mM EGTA, Complete Protease Inhibitor (Roche). Protein concentration was determined using the Micro-BCA Protein Assay Kit (Pierce, Rockford, Ill.) using BSA as a standard. Membranes were quick frozen and stored at −80 degrees Celsius until use.
Binding experiments: 50 μl of test compound was incubated with 50 μl of [^3H] CP-55,940 (Perkin Elmer, Boston, Mass.) (final concentration=[…]) and 150 μl of membrane homogenate (1 μg/well) in polypropylene 96-well plates (Corning, Acton, Mass.). Final reaction conditions were 50 mM Tris pH 7.4, 100 mM NaCl, 3 mM MgCl2, 0.2 mM EGTA, 0.04% BSA. Nonspecific binding was determined by incubation with 50 μM WIN-55, 212-2 (Tocris, Ellisville, Mo.). After incubation at room temperature for 60 minutes reactions were harvested by vacuum filtration through Unifilter GF/B-96 filters (Perkin Elmer) that had been presoaked in assay buffer containing 0.5% BSA (Sigma, St. Louis, Mo.) using a FilterMate Plate Harvester (Perkin Elmer). Filters were rinsed 4 times with 50 mM Tris pH 7.4, 0.025% Tween-20 and dried at 50 degrees Celsius for at least 30 minutes. 40 μl of Microscint-20 (Perkin Elmer) was added per well, and plates were counted using a Top-Count Microplate Scintillation Counter (Perkin Elmer). Binding data were analyzed and EC50 and K, values calculated using Graph Pad Prism 4.0 Software.
In general, Ki refers to the equilibrium dissociation constant of an inhibitor or competing ligand from its target. In turn, `CC(C)(C)[C@H](NC(=O)c1nn(Cc2ccc(F)cc2)c2ccccc12)C(=O)N[C@H]1CNC(=O)C1` [Example 455] gave a Ki of 33.6 nM. Same read-out and setting: for `CC(C)(C)[C@H](NC(=O)c1nn(Cc2ccc(C#N)cc2)c2ccc(Cl)cc12)C(=O)NC1CCC1` [Example 449] the value was over 400 nM; for `CC(C)(C)[C@H](NC(=O)c1nn(Cc2ccc(C#N)cc2)c2ccccc12)C(=O)NCC1CCC(=O)N1` (stereo partly shown) [Example 401], over 400 nM. Still for that read-out and setting: for `COc1cc(C#N)ccc1Cn1nc(C(=O)N[C@H](C(=O)NCCO)C(C)(C)C)c2ccccc21` [Example 386] the value was 209 nM; for `CC(C)(C)[C@H](NC(=O)c1nn(Cc2ccc(C#N)cc2)c2cc(F)ccc12)C(=O)NC[C@H]1C[C@@H]1CO` [Example 487], 109 nM.

The compound `CC(C)(C)[C@H](NC(=O)c1nn(Cc2ccc(F)cc2)c2ccccc12)C(=O)N1CCS(=O)(=O)CC1` [Example 269] displayed an inhibition constant (Ki) of 23.8 nM.

As for `Cc1nnc(CNC(=O)[C@@H](NC(=O)c2nn(Cc3ccc(C#N)cc3F)c3c(F)cccc23)C(C)(C)C)o1` [Example 372], the inhibition constant Ki was determined as 22.6 nM. `CC(C)(C)[C@H](NC(=O)c1nn(Cc2ccc(C#N)cc2)c2ccccc12)C(=O)N[C@H]1CNC(=O)C1` [Example 452] registered an inhibitory constant (Ki) of over 400 nM.

`COc1cc(C#N)ccc1Cn1nc(C(=O)N[C@H](C(=O)NCCS(N)(=O)=O)C(C)(C)C)c2ccccc21` [Example 390] registered a Ki of over 400 nM. `CC(C)(C)[C@H](NC(=O)c1nn(Cc2ccc(F)cc2)c2ccc(Cl)cc12)C(=O)NC[C@H](O)CO` [Example 431] returned a Ki of 13.6 nM. In turn, `CC(C)(C)[C@H](NC(=O)c1nn(Cc2cccc3ccccc23)c2ccccc12)C(N)=O` [Example 272] had a Ki of over 400 nM.

As for `CC(C)(C)[C@H](NC(=O)c1nn(Cc2ccc(C#N)cc2F)c2ccccc12)C(=O)NCCC(N)=O` [Example 471], the Ki is over 400 nM. Take `CC(C)(C)[C@H](NC(=O)c1nn(Cc2ccc(C#N)cc2)c2ccccc12)C(=O)N1CCS(=O)(=O)CC1` [Example 268]: the inhibition constant Ki is over 400 nM. Still for that read-out and setting: for `CC(C)(C)[C@H](NC(=O)c1nn(Cc2ccc(C#N)cc2)c2ccccc12)C(=O)N1C[C@@H](O)[C@@H](O)C1` [Example 285] the value was 27.9 nM. The compound `CC(C)(C)[C@H](NC(=O)c1nn(Cc2ccc(C#N)cc2)c2ccc(Cl)cc12)C(=O)NC[C@H](O)CO` [Example 441] yielded an inhibitory constant (Ki) of over 400 nM. Compound `CC(C)(C)[C@H](NC(=O)c1nn(Cc2ccc(C(F)(F)F)cc2)c2ccccc12)C(=O)NCCS(C)(=O)=O` [Example 258] had a Ki of over 400 nM. `CC(C)(C)[C@H](NC(=O)c1nn(Cc2ccc(C#N)cc2F)c2c(F)c(F)ccc12)C(=O)NCCS(N)(=O)=O` [Example 363] displayed an inhibition constant Ki of 57.8 nM.

`CC(C)(C)[C@H](NC(=O)c1nn(Cc2ccc(C#N)cc2F)c2c(F)cccc12)C(=O)NC[C@H](O)CO` [Example 367] returned an inhibitory constant (Ki) of 41.4 nM. The compound `CC(C)(C)[C@H](NC(=O)c1nn(Cc2ccc(C#N)cc2)c2cc(F)ccc12)C(=O)N[C@@H]1CNC(=O)C1` [Example 458] came in with a Ki of 120 nM. For `CC(C)(C)[C@H](NC(=O)c1nn(Cc2ccc(C#N)cc2)c2ccccc12)C(=O)NCC1CNC(=O)O1` (stereo partly shown) [Example 316], the Ki was found to be 243 nM. Compound `CC(C)(C)[C@H](NC(=O)c1nn(Cc2ccc(F)cc2)c2ccc(Cl)cc12)C(=O)NCC(N)=O` [Example 430] showed a Ki of 18.2 nM. `CC(C)(C)[C@H](NC(=O)c1nn(Cc2ccc(C#N)cc2F)c2c(F)cccc12)C(=O)NCCS(N)(=O)=O` [Example 371] came in with an inhibition constant Ki of 54.8 nM.

Compound `CC(C)(C)[C@H](NC(=O)c1nn(Cc2ccc(C#N)cc2F)c2c(F)c(F)ccc12)C(=O)NCC(N)=O` [Example 359] returned a Ki of 47.2 nM.

`CC(C)(C)[C@H](NC(=O)c1nn(Cc2ccc(C#N)cc2)c2ccc(Cl)cc12)C(=O)NC1CC1` [Example 446] displayed a Ki of 168 nM. `CC(C)(C)[C@H](NC(=O)c1nn(Cc2ccc(C#N)cc2)c2cc(F)ccc12)C(=O)N1CC(C(N)=O)C1` [Example 353] registered a Ki of 72.8 nM. As to `CC(C)(C)[C@H](NC(=O)c1nn(Cc2ccc(C#N)cc2)c2ccc(Cl)cc12)C(=O)NCCS(C)(=O)=O` [Example 442], the inhibition constant (Ki) was over 400 nM.

In the case of `CC(C)(C)[C@H](NC(=O)c1nn(Cc2ccc(F)cc2)c2ccccc12)C(=O)N1CCC[C@@H]1C(N)=O` [Example 319], the Ki was determined as 45.8 nM.

`CC(C)(C)[C@H](NC(=O)c1nn(Cc2ccc(C#N)cc2)c2ccc(Cl)cc12)C(=O)NCC1CC1` [Example 451] displayed a Ki of over 400 nM. In the case of `CC(C)(C)[C@H](NC(=O)c1nn(Cc2ccc(C#N)cc2F)c2c(F)c(F)ccc12)C(=O)NCCS(C)(=O)=O` [Example 362], affinity was put at a Ki of 125 nM. The same measure, in the same setting: for `CC(C)(C)[C@H](NC(=O)c1nn(Cc2ccc(C#N)cc2)c2cc(F)ccc12)C(=O)N[C@H]1CNC(=O)C1` [Example 454] the value was over 400 nM; for `CC(C)(C)[C@H](NC(=O)c1nn(Cc2ccc(F)cc2)c2ccccc12)C(=O)NCC(=O)O` [Example 9, N-{[1-(4-fluorobenzyl)-1H-indazol-3-yl]carbonyl}-3-methyl-L-valylglycine], 84.2 nM.

As to `CC(C)(C)[C@H](NC(=O)c1nn(Cc2ccc(C(F)(F)F)cc2)c2ccccc12)C(=O)NC(CO)CO` [Example 261], affinity was put at a Ki of 76.7 nM. The compound `CC(C)(C)[C@H](NC(=O)c1nn(Cc2ccc(C#N)cc2)c2ccccc12)C(=O)N[C@H]1C[C@@H](C(N)=O)C1` [Example 396] came in with an inhibitory constant (Ki) of 239 nM.

Still in this test, the particulars now being: read-out: CB1 Ki.
In the case of `Cc1nnc(CNC(=O)[C@@H](NC(=O)c2nn(Cc3ccc(C#N)cc3F)c3c(F)c(F)ccc23)C(C)(C)C)o1` [Example 364], the Ki came to 20.9 nM. As to `CC(C)(C)[C@H](NC(=O)c1nn(Cc2ccc(F)cc2)c2ccccc12)C(=O)NCC(=O)NC[C@H](O)CO` [Example 522], the inhibition constant (Ki) was over 400 nM. With `CCOC(=O)[C@H]1C[C@@H](NC(=O)[C@@H](NC(=O)c2nn(Cc3ccc(C#N)cc3F)c3ccccc23)C(C)(C)C)C1` [Example 382], the inhibition constant Ki was 238 nM. With `CC(C)(C)[C@H](NC(=O)c1nn(Cc2ccc(F)cc2)c2ccccc12)C(=O)N1CCC[C@H]1C(=O)NC[C@H](O)CO` [Example 294], the inhibition constant Ki was over 400 nM. Regarding `CC(C)(C)[C@H](NC(=O)c1nn(Cc2ccc(F)cc2)c2ccccc12)C(=O)N[C@@H](CC(N)=O)C(N)=O` [Example 239], the inhibitory constant (Ki) was determined as 46.8 nM. With `CC(C)(C)[C@H](NC(=O)c1nn(Cc2ccc(F)cc2)c2ccccc12)C(=O)NC[C@H](O)CN1CCCC1` [Example 503], the inhibitory constant (Ki) amounted to 321 nM. `CN1CC(CNC(=O)[C@@H](NC(=O)c2nn(Cc3ccc(C#N)cc3)c3ccccc23)C(C)(C)C)CC1=O` (stereo partly shown) [Example 408]: the Ki was over 400 nM. Still for that read-out and setting: the result for `CC(C)(C)[C@H](NC(=O)c1nn(Cc2ccc(F)cc2)c2ccccc12)C(=O)N1CCCC(C(=O)NCCO)C1` (stereo partly shown) [Example 277] reads 31.7 nM; that for `CC(C)(C)[C@H](NC(=O)c1nn(Cc2ccc(C(F)(F)F)cc2)c2ccccc12)C(=O)NCCNS(=O)(=O)c1ccc(C#N)cc1` [Example 267], 78 nM; that for `CC(C)(C)[C@H](NC(=O)c1nn(Cc2ccc(F)cc2)c2ccc(Cl)cc12)C(=O)NCCN1CCNC(=O)C1` [Example 475], 141 nM. Still for that read-out and setting: for `CC(C)(C)[C@H](NC(=O)c1nn(Cc2ccc(F)cc2)c2ccccc12)C(=O)N1CCCC(C(=O)NC[C@H](O)CO)C1` (stereo partly shown) [Example 278] the value was 68.8 nM; for `CC(C)(C)[C@H](NC(=O)c1nn(Cc2ccc(F)c(F)c2)c2ccccc12)C(=O)NCCN1CCNC(=O)C1` [Example 469], 80.7 nM; for `CC(C)NC(=O)OC1CCCN(C(=O)[C@@H](NC(=O)c2nn(Cc3ccc(F)cc3)c3ccccc23)C(C)(C)C)C1` (stereo partly shown) [Example 318], 68.7 nM. For the compound `CN1CC(CNC(=O)[C@@H](NC(=O)c2nn(Cc3ccc(C#N)cc3)c3c(F)cccc23)C(C)(C)C)CC1=O` (stereo partly shown) [Example 409], the Ki came to 73 nM. As to `CN1CC(CNC(=O)[C@@H](NC(=O)c2nn(Cc3ccc(C#N)cc3)c3cc(F)ccc23)C(C)(C)C)CC1=O` (stereo partly shown) [Example 410], the inhibition constant Ki was determined as 104 nM. In the case of `CC(C)(C)[C@H](NC(=O)c1nn(Cc2ccc(F)cc2)c2ccccc12)C(=O)N1C[C@@H]2C[C@H]1CN2C(=O)CCC(N)=O` [Example 227], the inhibitory constant (Ki) was over 400 nM.
